Measurements taken from patent US10206890B2, “Pharmaceutical combination” (priority 2008, dated 2019).
Values joined by “and” are separate entries in the source; they are usually repeats but may differ in a detail not shown here. Identical values can stand only once. Counter-ions that a name gives are not always drawn. Like-named read-outs stand apart in the source and are kept apart here.

Key:
[1] = system: rats with tightly ligated L5, L6 spinal nerves (tactile allodynia); assay: b) In vivo experiments according to Chung (anti-allodynic testing, single dose combinations vs sum of single effects); set-up: species or system rat; conditions: 30 min, ± SEM
Text: The left L5 and L6 spinal nerves were exposed by removing a small piece of the paravertebral muscle and a part of the left spinous process of the L5 lumbar vertebra. The L5 and L6 spinal nerves were then carefully isolated and tightly ligated with silk (NC-silk black, USP 5/0, metric 1, Braun Melsungen AG, Melsungen, FRG). After checking hemostasis, the muscle and the adjacent fascia were closed with sutures and the skin was closed with sutures.
After operation, animals were allowed to recover for one week. Animals develop tactile allodynia which is stable for at least five weeks. For the assessment of tactile allodynia the rats were placed on a metal mesh covered with a plastic dome and were allowed to habituate until the exploratory behaviour diminished. Threshold for tactile allodynia was measured with an electronic von Frey anesthesiometer (Somedic, Sweden). Animals randomly assigned to groups of 10 for each test dose and vehicle, were tested 0.5 h before administration and on several time points after administration. The median of the withdrawal threshold for each animal at a given time is calculated from five individual stimulations with the electronic von Frey filament. Withdrawal thresholds of the injured paws are expressed as % maximal possible effect (% MPE) comparing predrug threshold of Chung-animals (=0% MPE) and control threshold of sham-animals (=100% MPE). A cut-off is set at 100% MPE. The effect of each compound and vehicle is calculated for each testing time point (e.g. 0.5, 1, 3 h post administration) as interindividual % MPE value (±SEM). Anti-allodynic efficacy is defined as increase of ipsi-lateral withdrawal threshold without effect on contra-lateral withdrawal threshold. Ten animals have been used in each group.
Effects of drug combinations are compared to the theoretical sum of the effects of each drug tested alone.

[2] = system: male Sprague-Dawley rats with ligated left L5/L6 spinal nerves (tactile allodynia); assay: In vivo experiments according to Chung (spinal nerve ligation, tactile allodynia, electronic von Frey; isobolographic analysis); set-up: species or system rat; conditions: for contra-lateral paw withdrawal threshold, anti-nociceptive effect: 10 mg/kg i.v.; for ED50 (95% confidence interval), anti-allodynic efficacy, single substance / efficacy, increase in the withdrawal threshold of the ipsi-lateral hind paw: i.v.; for ED50 (95% confidence interval), anti-allodynic efficacy, single substance: calculated from peak effect vs. control values at 30 min after administration; for efficacy, increase in the withdrawal threshold of the ipsi-lateral hind paw: maximal efficacy over the doses tested (combination: highest dose 1 mg/kg+2.5 mg/kg), peak effect 30 min after administration
Text: The weight ratios of components (a) and (b) that will lead to a supra-additive effect/synergistic effect of the inventive compositions may be determined in the test of Kim & Chung as described in Kim S H, Chung J M. An experimental model for peripheral mononeuropathy produced by segmental spinal nerve ligation in the rat. Pain 1992; 50: 355-63. Said reference is hereby incorporated by reference and forms part of the disclosure.
Ligatures were applied to the left L5/L6 spinal nerves of male Sprague-Dawley rats (140-160 g body weight, Janvier, Genest St. Isle, France). […] Three to four weeks after the operation the tactile allodynia threshold baseline (withdrawal threshold) was measured on the ipsilateral and contralateral hind paw by an electronic von Frey anaesthesiometer (Somedic, Schweden). After test and measurement of the baseline, (1R,2R)-3-(3-dimethylamino-1-ethyl-2-methyl-propyl)-phenol hydrochloride (hereinafter referred to as tapentadol hydrochloride or tapentadol-HCl), (S)-pregabalin as well as the inventive combination of tapentadol-HCl and (S)-pregabalin were each dissolved in 0.9% NaCl solution and injected by the intravenous (i.v.) route (application volume 5 ml/kg). Animals were randomly assigned to groups of 10 for each test dose and vehicle (0.9% NaCl solution) and tactile withdrawal thresholds were tested 0.5 h before administration and on several time points (0.5, 1 and 3 hours) after intravenous administration. Ipsi- and contralateral hindpaws were tested. The median of the withdrawal threshold for each animal at a given time is calculated from five individual stimulations with the electronic von Frey filament. Withdrawal thresholds of the injured paws are expressed as % MPE (Maximum possible effect) comparing predrug threshold of Chung-Animals (=0% MPE) and control threshold of sham-animals (100% MPE). A cut-off is set at 100% MPE. The effect of each compound and vehicle is calculated for each testing time point as interindividual % MPE value.
Data (anti-allodynic efficacy (% MPE), ipsi-lateral, paw withdrawal threshold (g), ipsi- and conralateral) were analysed by means of a two-factor analysis of variance (ANOVA) with repeated measures. In case of a significant treatment effect, post hoc analysis with Bonferroni adjustment was performed. Results were considered statistically significant if P<0.05.

[3] = system: inflamed rat hind paw (carrageenan); assay: c) In vivo experiments according to Randall-Selitto (carrageenan inflammatory pain, mechanical nociceptive threshold; isobolographic analysis; conditions: peak effect 15 min p. appl., interval in brackets; for ED50: Rattus norvegicus, 0.25 h
Experimental: The weight ratios of the components (a) and (b) that will lead to a supra-additive effect (synergistic effect) of the inventive pharmaceutical composition may be determined via the test of Randall and Selitto as described in Arch. Int. Pharmacodyn., 1957, 111, 409 to 419, which is a model for inflammatory pain. The respective part of the literature is hereby incorporated by reference and forms part of the present disclosure.
Acute inflammation is induced by an intraplantar injection of 0.1 ml of a carrageenan solution (0.5% in distilled water) into one hind paw. The mechanical nociceptive threshold is measured 4 hours after carrageenan injection using an Algesiometer (Ugo Basile, Italy). The device generates a mechanical force with a linear increase over time. The force is applied to the dorsal surface of the inflamed rat hind paw via a cone-shaped stylus with a rounded tip (2 mm tip diameter). The nociceptive threshold is defined as the force (in grams) at which the rat vocalises (cut-off force 250 g). The mechanical nociceptive threshold is measured at different timepoints after the drug or vehicle administration. The antinociceptive and antihyperalgesic activity of the tested substance is expressed as percentages of the maximal possible effect (% MPE). The group size is n=10.
The interactions studies presented herein were performed using equieffective doses of the two components, calculated from the ratio of the respective ED50 values of the components if administered alone.
The route of administration was intravenous (i.v.) for Tapentadol hydrochloride (A) and intraperitoneal (i.p.) for the anticonvulsants (antiepileptics) Lamotrigine, Lacosamide, Levetiracetam and Retigabine dihydrochloride. […] According to their respective timepoint of peak effect, A was applied 15 min and the anticonvulsant component 15 min before timepoint of measurement of the interaction-experiments (i. e. both components were applied simultaneously). Thus, the time point of ED50 calculation of the combination corresponds to the timepoint of the peak effect of the respective compound.

[4] = ip, read-out: ED50 of the anticonvulsant applied alone, i.p.
[5] = ip, i.p., read-out: ED50 of the anticonvulsant applied alone

## NCC1(CC(=O)O)CCCCC1 [Gabapentin]
[1]; single substance 10 mg/kg iv (20 min before Tapentadol hydrochloride time point)
  Effect % MPE (time after administration of Tapentadol hydrochloride): 3 ± 3% (30 min) % MPE

## CC(C)C[C@H](CN)CC(=O)O [(S)-pregabalin]
[2]
  contra-lateral paw withdrawal threshold, anti-nociceptive effect: significant anti-nociceptive effects
  ED50 (95% confidence interval), anti-allodynic efficacy, single substance: 4.20 (3.37-5.43) mg/kg i.v.
  efficacy, increase in the withdrawal threshold of the ipsi-lateral hind paw: 67 % MPE

## COC[C@@H](NC(C)=O)C(=O)NCc1ccccc1 [Lacosamide]
[3]; [4]
  ED50: 35.9 mg/kg
[1]; single substance 3 mg/kg iv
  Effect % MPE (time after administration of Tapentadol hydrochloride): 24 ± 4% (30 min) % MPE

## CC1(C)O[C@@H]2[C@@H](CO[C@@]3(COS(N)(=O)=O)OC(C)(C)O[C@@H]23)O1 [Topiramate]
[1]; single substance 1 mg/kg iv
  Effect % MPE (time after administration of Tapentadol hydrochloride): 22 ± 3% (30 min) % MPE

## Nc1nnc(-c2cccc(Cl)c2Cl)c(N)n1 [Lamotrigine]
[3]; [5]
  ED50: 35.3 mg/kg
[3]; i.p.
  ED50 of the anticonvulsant applied alone: 35.25 mg/kg

## CC[C@@H](C(N)=O)N1CCCC1=O [Levetiracetam]
[3]; [5]
  ED50: 986 mg/kg
[1]; single substance 20 mg/kg iv
  Effect % MPE (time after administration of Tapentadol hydrochloride): 16 ± 4% (30 min) % MPE

## CC[C@@H](c1cccc(O)c1)[C@@H](C)CN(C)C [Tapentadol hydrochloride, (1R,2R)-3-(3-dimethylamino-1-ethyl-2-methyl-propyl)-phenol hydrochloride]
[3]; iv, read-out: ED50 of A (Tapentadol hydrochloride) applied alone, i.v.
  ED50: 1.75 mg/kg
[3]; i.v., listed as A, hydrochloride
  ED50 of A (Tapentadol hydrochloride) applied alone: 1.747 mg/kg and 1.749 mg/kg
[1]; single substance 1 mg/kg iv, hydrochloride
  Effect % MPE (time after administration of Tapentadol hydrochloride): 18 ± 4% (30 min) % MPE and 13 ± 5% (30 min) % MPE
[2]
  contra-lateral paw withdrawal threshold, anti-nociceptive effect: significant anti-nociceptive effects
  ED50 (95% confidence interval), anti-allodynic efficacy, single substance: 1.65 (1.20-2.35) mg/kg i.v.
  efficacy, increase in the withdrawal threshold of the ipsi-lateral hind paw: 94 % MPE

## CCOC(=O)Nc1ccc(NCc2ccc(F)cc2)cc1N [Retigabine dihydrochloride]
[3]; [4]
  ED50: 5.09 mg/kg
